Where two headings read alike, the source gives them in different places.
Key:
[1] = biological target: OXA-23 (Acinetobacter baumannii, UniProt Q9L4P2); test: Inhibition of nitrocefin cleavage by purified OXA-23; type: biochemical; settings: nitrocefin reporter substrate; 10 min preincubation at room temperature; read-out: Ki (OXA-23, NCF)
Method: (§1) Ki values of inhibition of purified class A, C and D enzymes were determined spectrophotometrically using nitrocefin as reporter substrate. Purified enzymes were mixed with various concentrations of inhibitors in reaction buffer and incubated for 10 min at room temperature. Nitrocefin was added and substrate cleavage profiles were recorded at 490 nm every 10 sec for 10 min. These experiments confirmed that the described compounds are inhibitors with a broad-spectrum of activity towards various β-lactamases.

[2] = biological target: NDM-1 (Klebsiella pneumoniae, UniProt C7C422); test: Inhibition of imipenem cleavage by purified NDM-1; type: biochemical; settings: imipenem reporter substrate; 37° C.; read-out: Ki (NDM-1, IMI)
Method: Purified enzymes were mixed with various concentrations of inhibitors in reaction buffer and incubated for 10 min at room temperature. Imipenem was added and substrate cleavage profiles were recorded at 294 nm every 30 seconds for 30 minutes at 37° C.

[3] = biological target: IMP-1 (Serratia marcescens, UniProt P52699); test: Inhibition of imipenem cleavage by purified IMP-1; type: biochemical; settings: imipenem reporter substrate; 37° C.; read-out: Ki (IMP-1, IMI)
Method: Ki values of inhibition of purified class B enzymes NDM-1 and IMP-1 were determined spectrophotometrically using imipenem as reporter substrate. Purified enzymes were mixed with various concentrations of inhibitors in reaction buffer and incubated for 10 min at room temperature. Imipenem was added and substrate cleavage profiles were recorded at 294 nm every 30 seconds for 30 minutes at 37° C. These experiments further confirmed that the described compounds have the ability to inhibit carbapenemase activity of metallo-beta-lactamases.

[4] = biological target: Pa-AmpC (Pseudomonas aeruginosa, UniProt P24735); test: biochemical
Method: as §1, with “min.” for “min. These experiments confirmed that the described compounds are inhibitors with a broad-spectrum of activity towards various β-lactamases.”

[5] = biological target: CTX-M-14 (Escherichia coli, UniProt Q9L5C7); test: Inhibition of nitrocefin cleavage by purified CTX-M-14; type: biochemical; settings: nitrocefin reporter substrate; 10 min preincubation at room temperature; read-out: Ki (CTX-M-14, NCF)
Method: as §1, with “min.” for “min. These experiments confirmed that the described compounds are inhibitors with a broad-spectrum of activity towards various β-lactamases.”

[6] = biological target: VIM-1 (Pseudomonas aeruginosa, UniProt A0A0F7KYQ8); test: Inhibition of nitrocefin cleavage by purified VIM-1; type: biochemical; settings: nitrocefin reporter substrate; 10 min preincubation at room temperature; read-out: Ki (VIM-1, NCF)
[7] = biological target: OXA-48 (Klebsiella pneumoniae, UniProt Q6XEC0); test: Inhibition of nitrocefin cleavage by purified OXA-48; type: biochemical; settings: nitrocefin reporter substrate; 10 min preincubation at room temperature; read-out: Ki (OXA-48, NCF)
Method: as §1

[8] = biological target: KPC-2 (Klebsiella pneumoniae, UniProt Q9F663); test: Inhibition of nitrocefin cleavage by purified KPC-2; type: biochemical; settings: nitrocefin reporter substrate; 10 min preincubation at room temperature; read-out: Ki (KPC-2, NCF)
Method: as §1

[9] = tested on: PAM1032/KPC-2 (overexpressed MexAB-OprM); test: Biapenem potentiation (MPC64) in PAM1032/KPC-2; type: cell-based, Pseudomonas aeruginosa; set-up: PAM1032/KPC-2 Biapenem MPC64: unit not given here; settings: BLI potency to decrease biapenem MIC 64-fold, from 32 to 0.5 μg/ml; efflux proficient strain
Method: (§2) Efflux of BLIs from Pseudomonas aeruginosa by the MexAB-OprM efflux pump was also evaluated. The plasmid expressing the gene encoding KPC-2 was introduced into two strains of P. aeruginosa, PAM1032 and PAM1154 that overexpressed or lacked MexAB-OprM, respectively. Due to expression of KPC-2 both strains became resistant to biapenem. […] Potency of BLIs to potentiate biapenem in these strains was determined. […] The ratio of MPC64 values for each BLI in PAM1032/KPC-2 (efflux proficient) and PAM1154/KPC-2 (efflux deficient) was determined to generate the Efflux Index (EI) as shown in Table 8.

[10] = biological target: P99 (Enterobacter cloacae, UniProt P05364); test: biochemical; settings: nitrocefin reporter substrate; 10 min preincubation at room temperature; read-out: Ki (P99, NCF)
Method: as §1, with “min.” for “min. These experiments confirmed that the described compounds are inhibitors with a broad-spectrum of activity towards various β-lactamases.”

[11] = tested on: PAM1154/KPC-2 (lacked MexAB-OprM); test: Biapenem potentiation (MPC64) in PAM1154/KPC-2; type: cell-based, Pseudomonas aeruginosa; set-up: PAM1154/KPC-2 Biapenem MPC64: unit not given here; settings: BLI potency to decrease biapenem MIC 64-fold, from 32 to 0.5 μg/ml; efflux deficient strain
Method: as §2

[12] = Stability of compound 13 prodrugs in human liver microsomes (HLM); type: in vitro ADME; settings: 0.500 mg/mL human liver microsomes, no cofactors, prodrug 1.00 μM; for half-life at 1 μM: pH 7.4, read-out: Estimated half-life (minutes) (rounded to nearest integer value)
Method: In the meantime, a 20.0 mg/mL solution of human liver microsomes (XenoTech, LLC) was diluted to 1.00 mg/mL (2× final concentration). Esterase activity for each lot of microsomes used was established by assaying an unrelated ester prodrug as a control. Both the Eppendorfs for each timepoint and the diluted liver microsomes were then warmed to 37° C. in a water bath. No cofactors (e.g. NADPH) were added to ensure that only hydrolytic reactions as opposed to reactions mediated by other cofactor-dependent enzymes (e.g. CYP450 enzymes) would take place. To initiate the reaction, 50 μL of diluted human liver microsomes was added to tubes for all timepoints using a repeating-tip pipette, thereby bringing the final concentration of test compound to 1.00 μM and the final concentration of human liver microsomes to 0.500 mg/mL. At each timepoint, the reaction was halted and proteins precipitated through the addition of 200 μL of 10:45:45 water:methanol:acetonitrile v/v/v containing an unrelated ester prodrug at 250 ng/mL as an internal standard. […] Sample analysis for microsome stability experiments was conducted using a 20.0 μL injection on a LEAP PAL autosampler with Agilent 1100 binary pump HPLC coupled to an AB Sciex 3200 QTrap mass spectrometer. […] Detection was in positive mode; source parameters and parent-daughter ion selection criteria were chosen as needed for each compound to achieve an appropriate limit of detection and signal-to-noise ratio. The samples were analyzed together with appropriate blanks in order to ensure specificity. The rate of hydrolysis for each prodrug was determined by monitoring the concentration of test compound as follows. The peak area for the analyte was divided by the peak area for the internal standard to give an area ratio. The area ratio for each of the two replicates at each timepoint was divided by the area ratio for timepoint 0 to give the percent remaining at each timepoint. The natural logarithm of the percent remaining versus time for all replicates was plotted using Microsoft Excel and fitted to a linear trendline.

[13] = nitrocefin reporter substrate, 10 min preincubation at room temperature, read-out: Ki (Pa-AmpC, NCF)

NDM-1, sequence (C7C422 29-270, looked up, species assumed): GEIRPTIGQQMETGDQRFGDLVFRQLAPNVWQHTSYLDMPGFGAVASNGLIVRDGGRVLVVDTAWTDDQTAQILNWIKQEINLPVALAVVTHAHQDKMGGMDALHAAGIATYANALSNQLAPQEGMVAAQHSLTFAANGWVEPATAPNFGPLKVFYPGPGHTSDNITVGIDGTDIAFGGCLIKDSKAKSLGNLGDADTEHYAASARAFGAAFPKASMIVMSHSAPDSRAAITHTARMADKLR
P99, sequence (P05364 21-381): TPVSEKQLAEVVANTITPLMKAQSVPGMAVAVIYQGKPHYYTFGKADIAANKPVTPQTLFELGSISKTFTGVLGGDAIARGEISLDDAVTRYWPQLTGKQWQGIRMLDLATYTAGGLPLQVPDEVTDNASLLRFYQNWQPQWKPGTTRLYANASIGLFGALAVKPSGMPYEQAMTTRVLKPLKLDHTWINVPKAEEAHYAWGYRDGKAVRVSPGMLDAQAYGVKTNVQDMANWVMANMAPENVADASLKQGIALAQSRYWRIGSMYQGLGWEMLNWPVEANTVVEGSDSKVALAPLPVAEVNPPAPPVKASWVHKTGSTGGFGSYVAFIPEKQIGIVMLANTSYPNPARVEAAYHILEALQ
IMP-1, sequence (P52699 19-246, looked up, species assumed): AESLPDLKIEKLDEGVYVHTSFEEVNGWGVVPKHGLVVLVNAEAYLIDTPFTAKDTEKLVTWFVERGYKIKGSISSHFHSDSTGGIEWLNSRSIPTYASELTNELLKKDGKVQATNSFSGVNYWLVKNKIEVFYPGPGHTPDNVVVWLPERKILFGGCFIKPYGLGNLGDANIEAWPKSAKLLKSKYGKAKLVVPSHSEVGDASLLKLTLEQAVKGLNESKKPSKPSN
Pa-AmpC, sequence (P24735 27-397): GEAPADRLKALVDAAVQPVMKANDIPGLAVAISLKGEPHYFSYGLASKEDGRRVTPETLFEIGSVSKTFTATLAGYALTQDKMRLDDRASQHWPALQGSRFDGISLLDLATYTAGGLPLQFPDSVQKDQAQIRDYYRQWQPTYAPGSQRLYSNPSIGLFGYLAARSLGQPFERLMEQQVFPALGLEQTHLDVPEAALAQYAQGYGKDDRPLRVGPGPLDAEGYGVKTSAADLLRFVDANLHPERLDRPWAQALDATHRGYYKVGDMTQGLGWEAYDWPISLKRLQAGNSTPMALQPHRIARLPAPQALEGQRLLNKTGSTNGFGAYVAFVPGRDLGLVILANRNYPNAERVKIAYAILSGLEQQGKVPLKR
OXA-48, sequence (Q6XEC0 23-265, looked up): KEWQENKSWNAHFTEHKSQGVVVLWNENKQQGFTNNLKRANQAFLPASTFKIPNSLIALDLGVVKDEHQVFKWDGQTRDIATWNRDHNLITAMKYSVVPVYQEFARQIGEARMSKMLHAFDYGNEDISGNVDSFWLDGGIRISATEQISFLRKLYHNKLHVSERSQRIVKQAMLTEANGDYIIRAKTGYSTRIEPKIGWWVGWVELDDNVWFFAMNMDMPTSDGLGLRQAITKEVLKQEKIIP
CTX-M-14, sequence (Q9L5C7 29-291, species assumed): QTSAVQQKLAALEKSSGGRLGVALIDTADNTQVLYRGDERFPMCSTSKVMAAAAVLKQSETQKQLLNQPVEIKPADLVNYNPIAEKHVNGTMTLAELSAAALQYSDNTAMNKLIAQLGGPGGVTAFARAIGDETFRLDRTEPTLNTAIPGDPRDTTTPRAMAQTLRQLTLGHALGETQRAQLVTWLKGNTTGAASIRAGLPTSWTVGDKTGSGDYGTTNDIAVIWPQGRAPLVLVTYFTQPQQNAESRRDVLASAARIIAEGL
OXA-23, sequence (Q9L4P2 18-273): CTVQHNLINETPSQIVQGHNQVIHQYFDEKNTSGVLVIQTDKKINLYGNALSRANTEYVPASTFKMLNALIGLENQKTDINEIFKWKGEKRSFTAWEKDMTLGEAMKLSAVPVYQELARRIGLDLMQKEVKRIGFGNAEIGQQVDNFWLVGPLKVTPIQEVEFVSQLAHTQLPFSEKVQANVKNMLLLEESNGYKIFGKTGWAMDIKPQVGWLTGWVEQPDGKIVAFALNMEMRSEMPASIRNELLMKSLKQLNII
KPC-2, sequence (Q9F663 25-293 limits assumed): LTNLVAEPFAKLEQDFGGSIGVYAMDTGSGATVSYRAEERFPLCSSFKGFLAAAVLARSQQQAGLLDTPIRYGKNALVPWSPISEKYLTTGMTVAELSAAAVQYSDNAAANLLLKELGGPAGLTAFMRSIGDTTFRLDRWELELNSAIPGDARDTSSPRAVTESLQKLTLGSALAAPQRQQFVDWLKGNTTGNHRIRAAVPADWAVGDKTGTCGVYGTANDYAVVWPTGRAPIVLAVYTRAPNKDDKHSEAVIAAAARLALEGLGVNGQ

| Average % of initial area ratio at t = 0 min [12] [%] | Average % of initial area ratio at t = 5 min [12] [%] | Average % of initial area ratio at t = 10 min [12] [%] | Average % of initial area ratio at t = 30 min [12] [%] | half-life at 1 μM [12] [min] | Compound | Ki [1] [µM] | Ki [2] [µM] | Ki [3] [µM] | Ki [4] [µM] | Ki [5] [µM] | Ki [6] [µM] | Ki [7] [µM] | Ki [8] [µM] | PAM1032/KPC-2 Biapenem MPC64 [9] | Ki [10] [µM] | Ki [4, 13] [µM] | PAM1154/KPC-2 Biapenem MPC64 [11] |
| --- | --- | --- | --- | --- | --- | --- | --- | --- | --- | --- | --- | --- | --- | --- | --- | --- | --- |
|  |  |  |  |  | O=C(O)[C@H]1/C(=C/CO)O[C@@H]2CC(=O)N21 [Clavulanic Acid, reference compound] | > 1 | > 1 | > 1 | > 1 | < 0.1 | > 1 | > 1 | > 1 |  |  |  |  |
|  |  |  |  |  | COc1ccc2c(c1C(=O)O)OB(O)C1CC21 (stereo not drawn) [Compound 1, 2-Hydroxy-5-methoxy-1a,7b-dihydro-1H-cyclopropa[c][1,2]benzoxaborinine-4-carboxylic acid] | < 0.1 | < 0.1 | < 0.1 |  | < 0.1 | < 0.1 | < 0.1 | < 0.1 | 2.5 | < 0.1 | < 0.1 | 1.25 |
|  |  |  |  |  | O=C(O)c1c(F)ccc2c1OB(O)C1CC21 (stereo not drawn) [Compound 4, 5-Fluoro-2-hydroxy-1a,7b-dihydro-1H-cyclopropa[c][1,2]benzoxaborinine-4-carboxylic acid] | < 0.1 |  | > 1 |  | < 0.1 | 0.1 to 1 | < 0.1 | < 0.1 | 2.5 | < 0.1 | < 0.1 | 2.5 |
|  |  |  |  |  | COc1ccc2c(c1C(=O)O)OB(O)C(F)=C2 [Compound 8, 3-Fluoro-2-hydroxy-7-methoxy-1,2-benzoxaborinine-8-carboxylic acid] | < 0.1 |  | > 1 |  | < 0.1 | 0.1 to 1 | < 0.1 | < 0.1 | 2.5 | < 0.1 | < 0.1 | 2.5 |
|  |  |  |  |  | COc1ccc2c(c1C(=O)O)OB(O)C=C2 [Compound 9, 2-Hydroxy-7-methoxy-1,2-benzoxaborinine-8-carboxylic acid] | < 0.1 | > 1 | > 1 |  |  | > 1 | < 0.1 | < 0.1 | >10 | < 0.1 | 0.1 to 1 | 1.25 |
|  |  |  |  |  | O=C(O)c1nccc2c1OB(O)[C@H]1C[C@@H]21 [Compound 20, (1aS,7bR)-2-hydroxy-1a,7b-dihydro-1H-cyclopropa[6,7]oxaborinino[2,3-c]pyridine-4-carboxylic acid] | 0.1 to 1 | > 1 |  |  | < 0.1 | > 1 | < 0.1 | 0.1 to 1 | 5 | > 1 | > 1 | 5 |
|  |  |  |  |  | O=C(O)c1nccc2c1OB(O)[C@@H]1C[C@H]21 [Compound 21, (1aR,7bS)-2-hydroxy-1a,7b-dihydro-1H-cyclopropa[6,7]oxaborinino[2,3-c]pyridine-4-carboxylic acid] | < 0.1 | 0.1 to 1 |  |  | < 0.1 | 0.1 to 1 | < 0.1 | 0.1 to 1 | 1.25 | 0.1 to 1 | > 1 | 1.25 |
|  |  |  |  |  | COc1ccc2c(c1C(=O)O)OB(O)C1=C2COC1 [Compound 24, 4,4-dihydroxy-7-methoxy-1,3-dihydrofuro[3,4-c][1,2]benzoxaborinine-6-carboxylic acid] | < 0.1 | 0.1 to 1 | > 1 |  | < 0.1 | > 1 | < 0.1 | < 0.1 |  | < 0.1 | < 0.1 |  |
| 100 | 73.4 | 55.9 | 11.9 | 10 | CCCC(=O)OCOC(=O)c1c(F)ccc2c1OB(O)[C@@H]1C[C@H]21 [Compound 26, Butanoyloxymethyl (1aR,7bS)-5-fluoro-2-hydroxy-1a,7b-dihydro-1H-cyclopropa[c][1,2]benzoxaborinine-4-carboxylate] |  |  |  |  |  |  |  |  |  |  |  |  |
| 100 | 91.4 | 80.4 | 25.0 | 14 | O=C(OCOC(=O)C1CC1)c1c(F)ccc2c1OB(O)[C@@H]1C[C@H]21 [Compound 27] |  |  |  |  |  |  |  |  |  |  |  |  |
|  |  |  |  |  | C[C@]1(Cn2ccnn2)[C@H](C(=O)O)N2C(=O)C[C@H]2S1(=O)=O [Tazobactam, reference compound] | 0.1 to 1 | > 1 | > 1 |  |  | > 1 | 0.1 to 1 | > 1 |  |  |  |  |

| Compound | Average % of initial area ratio at t = 0 min [12] [%] | Average % of initial area ratio at t = 5 min [12] [%] | Average % of initial area ratio at t = 10 min [12] [%] | Average % of initial area ratio at t = 30 min [12] [%] | half-life at 1 μM [12] [min] | Ki [1] [µM] | Ki [2] [µM] | Ki [3] [µM] | Ki [4] [µM] | Ki [5] [µM] | Ki [6] [µM] | Ki [7] [µM] | Ki [8] [µM] | PAM1032/KPC-2 Biapenem MPC64 [9] | Ki [10] [µM] | Ki [4, 13] [µM] | PAM1154/KPC-2 Biapenem MPC64 [11] |
| --- | --- | --- | --- | --- | --- | --- | --- | --- | --- | --- | --- | --- | --- | --- | --- | --- | --- |
| CC(=O)OCOC(=O)c1c(F)ccc2c1OB(O)[C@@H]1C[C@H]21 [Compound 28, Acetoxymethyl (1aR,7bS)-5-fluoro-2-hydroxy-1a,7b-dihydro-1H-cyclopropa[c][1,2]benzoxaborinine-4-carboxylate] | 100 | 50.8 | 23.3 | 19.6 | 15 |  |  |  |  |  |  |  |  |  |  |  |  |

From patent publication US11999759B2, “Boronic acid derivatives and therapeutic uses thereof” (Qpex Biopharma, Inc., priority 2016, dated 2024)
